Experimental data from paper PMC7837216, “ISRIB Blunts the Integrated Stress Response by Allosterically Antagonising the Inhibitory Effect of Phosphorylated eIF2 on eIF2B” (Molecular Cell, 2021).

Columns and labels:
[1] = molecular target: T1, eIF2B (decamer; ISRIB pocket formed by the β- and δ-subunits) (Homo sapiens, UniProt P49770+Q9UI10); test: FP competition with FAM-ISRIB; BLI (ISRIB-induced dissociation of eIF2B from P-eIF2α-NTD); type: binding; design: gene EIF2B2; purified recombinant human eIF2B decamer; with eIF2Bβ (EIF2B2), with eIF2Bα, γ, ε in the decamer; P-eIF2α-NTD immobilised in the BLI assay
[2] = molecular target: T1, eIF2B (decamer; ISRIB pocket formed by the β- and δ-subunits); test: fluorescence polarization, kinetic displacement by unlabelled ISRIB (koff); type: binding; design: gene EIF2B2; purified recombinant human eIF2B decamer; with eIF2Bβ (EIF2B2), with eIF2Bα, γ, ε in the decamer

Row | EC50 [1] | fluorescence polarization, kinetic displacement by unlabelled ISRIB (koff) [2] | Compound
1 | 1.8 nM | – | O=C(COc1ccc(Cl)cc1)N[C@H]1CC[C@H](NC(=O)COc2ccc(Cl)cc2)CC1 [ISRIB]
2 | – | 0.0123 s⁻¹ | FAM-ISRIB
